Reference: patent publication EP0629211B1 (HOECHST AKTIENGESELLSCHAFT, priority 1992, dated 1993)
Read-outs that look alike come from different tables or passages of the source.

Columns and labels:
[1] = target: T1, Rezeptor (Glykoprotein IIb/IIIa) (Homo sapiens, UniProt P05106+P08514); experiment: Inhibition of 125I-fibrinogen binding to its receptor on intact gel-filtered human platelets; conditions: inhibition of 125I-fibrinogen binding after stimulation with ADP (10µM), read-out: Ki (µM), ADP stimuliert
T1 construct: an intakten, gelfiltrierten Human-Thrombozyten; endogenous in cells; host or cells: intact, gel-filtered human platelets from donor blood, stimulated with ADP (10 µM)
T1 sequence (P08514 32-887 limits assumed): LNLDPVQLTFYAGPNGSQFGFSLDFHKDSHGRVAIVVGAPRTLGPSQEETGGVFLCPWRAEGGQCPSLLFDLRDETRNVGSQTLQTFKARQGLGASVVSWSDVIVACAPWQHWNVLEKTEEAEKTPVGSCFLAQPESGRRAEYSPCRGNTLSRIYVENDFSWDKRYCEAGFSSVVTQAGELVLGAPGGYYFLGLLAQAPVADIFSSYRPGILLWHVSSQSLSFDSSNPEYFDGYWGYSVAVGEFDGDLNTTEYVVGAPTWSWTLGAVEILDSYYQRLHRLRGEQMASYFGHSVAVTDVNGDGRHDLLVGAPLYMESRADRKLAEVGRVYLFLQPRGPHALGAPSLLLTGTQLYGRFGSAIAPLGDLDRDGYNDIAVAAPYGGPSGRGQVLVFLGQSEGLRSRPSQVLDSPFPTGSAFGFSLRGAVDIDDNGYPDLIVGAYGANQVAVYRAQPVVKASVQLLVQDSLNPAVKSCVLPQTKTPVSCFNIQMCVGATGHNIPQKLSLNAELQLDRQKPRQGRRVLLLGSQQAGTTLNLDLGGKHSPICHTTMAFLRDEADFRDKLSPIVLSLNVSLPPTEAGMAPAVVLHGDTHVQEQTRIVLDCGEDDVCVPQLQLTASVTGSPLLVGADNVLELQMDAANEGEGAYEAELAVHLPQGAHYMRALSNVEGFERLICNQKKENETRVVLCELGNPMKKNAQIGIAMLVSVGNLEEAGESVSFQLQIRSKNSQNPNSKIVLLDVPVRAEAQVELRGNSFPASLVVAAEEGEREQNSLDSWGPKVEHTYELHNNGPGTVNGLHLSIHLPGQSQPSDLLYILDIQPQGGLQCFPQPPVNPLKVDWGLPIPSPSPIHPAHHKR
T1 sequence (P08514 891-1039 partner limits assumed): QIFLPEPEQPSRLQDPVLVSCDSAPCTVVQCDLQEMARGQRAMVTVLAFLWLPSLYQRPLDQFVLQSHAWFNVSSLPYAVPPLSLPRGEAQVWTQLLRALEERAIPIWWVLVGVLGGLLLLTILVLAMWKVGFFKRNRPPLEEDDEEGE
T1 sequence (P05106 27-788): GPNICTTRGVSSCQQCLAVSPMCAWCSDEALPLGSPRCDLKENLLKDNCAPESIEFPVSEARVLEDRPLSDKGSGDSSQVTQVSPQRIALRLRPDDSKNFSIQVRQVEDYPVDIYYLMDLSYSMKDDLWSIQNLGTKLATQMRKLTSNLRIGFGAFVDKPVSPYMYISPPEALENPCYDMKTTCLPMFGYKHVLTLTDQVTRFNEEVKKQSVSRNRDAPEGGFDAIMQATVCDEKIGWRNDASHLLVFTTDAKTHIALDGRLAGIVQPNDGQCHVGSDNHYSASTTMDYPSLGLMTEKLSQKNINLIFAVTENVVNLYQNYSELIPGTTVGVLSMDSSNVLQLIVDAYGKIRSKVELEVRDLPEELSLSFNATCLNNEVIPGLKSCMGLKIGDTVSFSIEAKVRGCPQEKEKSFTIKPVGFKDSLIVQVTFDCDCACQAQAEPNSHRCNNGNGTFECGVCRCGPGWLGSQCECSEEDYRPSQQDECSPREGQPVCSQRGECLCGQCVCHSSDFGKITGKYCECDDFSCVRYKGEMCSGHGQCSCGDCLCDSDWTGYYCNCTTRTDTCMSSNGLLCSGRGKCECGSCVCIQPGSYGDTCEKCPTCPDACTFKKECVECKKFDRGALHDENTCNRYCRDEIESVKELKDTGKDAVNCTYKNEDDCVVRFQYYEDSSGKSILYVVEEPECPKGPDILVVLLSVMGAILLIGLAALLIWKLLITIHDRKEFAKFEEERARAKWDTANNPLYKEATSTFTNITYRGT
From the text: (§1) Geprüft werden die Verbindungen vor allem auf ihre hemmende Wirkung bei der Blutplättchenaggregation und der Anhaftung von Fibrinogen an Blutplättchen. Verwendet werden gefiltrierte Blutplättchen aus humanem Spenderblut, die mit ADP oder Thrombin aktiviert werden.
Geprüft wird die Hemmung der Bindung von Fibrinogen an seinen Rezeptor (Glykoprotein IIb/IIIa) an intakten, gelfiltrierten Human-Thrombozyten durch die erfindungsgemäßen Verbindungen. Angegeben ist der Ki Wert der Bindungshemmung von ^125I-Fibrinogen nach Stimulierung mit ADP (10µM).

[2] = test system: gelfiltrierter Human-Thrombozyten; experiment: Inhibition of aggregation of gel-filtered human platelets after ADP or thrombin stimulation; assay type: cell-based; conditions: platelet aggregation
From the text: as §1
Als funktioneller Test wird die Hemmung der Aggregation gelfiltrierter Human-Thrombozyten nach ADP- oder Thrombin-Stimulierung durch die erfindungsgemäßen Verbindungen gemessen. Angegeben ist der IC50-Wert der Hemmung.

[3] = ADP-stimulated, read-out: IC50 (µM), ADP-stimuliert
[4] = thrombin-stimulated, read-out: IC50 (µM), Thrombin-stimuliert

Compound: N=C(N)c1ccc(CC2NC(=S)N(CC(=O)N[C@@H](CC(=O)O)C(=O)N[C@H](C(=O)O)c3ccccc3)C2=O)cc1 (stereo partly drawn) [Beispiel 2, (5-(S,R)-(4-Formamidino-benzyl)-4-oxo-2-thioxoimidazolidin-3-yl)-acetyl-L-aspartyl-L-phenylglycin]
- Ki [1]: 0.2 µM
- IC50 [2, 3]: 0.55 µM
- IC50 [2, 4]: 0.2 µM

Compound: N=C(N)NCCC[C@@H]1NC(=S)N(CC(=O)N[C@@H](CC(=O)O)C(=O)N[C@H](C(=O)O)c2ccccc2)C1=O
- Ki [1]: 0.07 µM
- IC50 [2, 3]: 0.5 µM
- IC50 [2, 4]: 0.1 µM
